The source of these data is patent publication US20100022778A1, “PROCESS FOR PRODUCTION OF SULFINYLBENZIMIDAZOLE COMPOUNDS OR SALTS THEREOF” (priority 2006, published 2010).

Molecules are shown by their SMILES.

This experiment deals with gastric acid secretion in dogs having chronic gastric fistula. Briefly: Gastric acid secretion inhibiting effect in dogs having chronic gastric fistula (histamine-stimulated). Type of experiment: in vivo. Conditions: dog, histamine i.v.; for Gastric Acid Secretion Inhibiting Action (%): first day, 1 h 40 min to 2 h after administration; for Gastric Acid Secretion Inhibiting Persistence (%): second day (24 hours after administration). As for the experimental part:
Using large dogs (body weight approximately 14 to 19 kg) having a chronic gastric fistula, the gastric acid secretion inhibiting action and gastric acid secretion inhibiting action persistence of test compounds of the Examples was investigated. The experiment was carried out over 2 days. On the first day, gastric juice was collected every 20 minutes under conditions of intravenously administering histamine (50 or 75 μg/kg/h) continuously for 3 hours. 1 Hour after commencing the histamine administration, the test compound suspended or dissolved in a 0.5% methylcellulose solution was administered at a volume of 0.1 ml/kg via an indwelling catheter in the duodenum. The gastric acid secretion inhibiting action of the test compound was then investigated over the subsequent 2 hours. On the second day (24 hours after the administration of the test compound), gastric juice was collected every 20 minutes under conditions of intravenously administering histamine continuously for 2 hours, and the gastric acid secretion inhibiting action persistence was investigated. After measuring the amount of gastric juice, a 0.5 ml sample of the gastric juice was taken, and neutralization titration was carried out to a pH of 7.0 with a 0.04 mol/l sodium hydroxide solution so as to measure the acid concentration. The acid concentration was multiplied by the amount of gastric juice so as to determine the gastric acid output. The gastric acid secretion inhibiting action was evaluated as the gastric acid secretion suppression rate (%) on the first day. The gastric acid secretion inhibiting action (%) was calculated using the following formula. In the case of 2 or more dogs, the mean over all of the dogs was calculated and is shown.
Gastric acid secretion inhibiting action (%)=(A−B)/A×100
[A] Gastric acid output over 20 minutes from 40 minutes to 1 hour after commencement of histamine administration [B] Gastric acid output over 20 minutes from 1 hour 40 minutes to 2 hours after administration of test compound
The gastric acid secretion inhibiting action persistence was evaluated as the gastric acid secretion suppression rate (%) on the second day. The gastric acid secretion inhibiting action persistence (%) was calculated using the following formula.
Gastric acid secretion inhibiting action persistence (%)=(C−D)/C×100
[C] Total gastric acid output from commencement of histamine administration on first day to 1 hour thereafter [D] Total gastric acid output from commencement of histamine administration on second day to 1 hour thereafter

Setting [1] is: 0.4 mg/kg i.d., mean of 10 dogs.

In the case of `Cc1cnc(C[S+]([O-])c2nc3ccccc3[n-]2)c(C)c1OCC1COC(C)(C)OC1.[Na+]` (stereo not drawn) [Compound X, Sodium Salt of Optical Isomer Having Short Retention Time of 2-[[[4-(2,2-dimethyl-1,3-dioxan-5-yl)methoxy-3,5-dimethylpyridin-2-yl]methyl]sulfinyl]-1H-benzimidazole], the “Gastric Acid Secretion Inhibiting Action (%)” value is recorded as 8% (0.1 mg/kg i.d., mean of 4 dogs); 65% (0.2 mg/kg i.d., mean of 4 dogs); 97% under setting [1]; 100% (0.8 mg/kg i.d., mean of 8 dogs). For the same compound, the “Gastric Acid Secretion Inhibiting Persistence (%)” value is, setting by setting: (0.1 mg/kg i.d., mean of 4 dogs) 6%; (0.2 mg/kg i.d., mean of 4 dogs) 46%; under setting [1], 77%; (0.8 mg/kg i.d., mean of 8 dogs) 89%.
